The source of these data is US5739115A, “Sulfated maltooligosaccharides with heparin-like properties” (Glycomed Incorporated, priority 1994, dated 1998).

Assay [1] has as its system pericyte and smooth muscle cell. As to conditions: literature; result in words; cited from earlier work.
The test system of another assay is vascular proliferation. To be noted: literature; result in words; cited from earlier work.
The subject of a further assay is bFGF. In words: Binding of RO-12 UC cells to bFGF coated micro-titer wells. It counts as cell-based, human. As to conditions: result in words, FIGS. 1 and 3. As for the experimental part:
Bound cells are readily quantitated as total protein.
The assay was run as follows: Fifty microliters of 10 ug/ml human recombinant bFGF was added to wells of a 96-well tissue culture plate and incubated overnight at 4° C. The wells were aspirated with PBS to remove any unbound bFGF, rinsed twice with PBS, and subsequently incubated with PBS containing 5% (v/v) fetal bovine serum for 1 hour at room temperature. RO-12 UC cells were suspended at a density of 3×10^6 cells/ml in PBS containing 5% fetal bovine serum. To this mixture was added the desired amount of sulfated composition, or heparin. […] Next, 100 ul of the cell suspension was immediately added to the microtiter wells, and incubated for 5 minutes, after which the wells were washed 3 times with PBS. Finally, the amount of cell protein bound to the wells was determined by dissolving the bound cells in 20 ul of 5% SDS and measuring the protein. concentration of the cell lysates. BSA was used as the standard.

Assay [2] has as its system adrenocortical endothelial (ACE) cell line. In words: Inhibition of bFGF-dependent adrenocortical endothelial (ACE) cell proliferation. In kind it is cell-based. As to conditions: 2 ng/ml bFGF, four days, result in words, FIGS. 2 and 4. As for the experimental part:
The capacity of the sulfated maltohexaoses to inhibit the proliferation of a bFGF-dependent adrenocortical endothelial (ACE) cell line was determined. This cell line (provided by D. Gospodarowicz, UCSF) requires either aFGF or bFGF for a proliferative response. Cells were seeded at low density in microtiter wells in the presence of 2 ng/ml bFGF, and growth was determined as total protein after four days in the presence of the sulfated maltohexaoses.

For assay [3], the system named is Bovine smooth muscle cells (SMC). In words: Inhibition of smooth muscle cell (SMC) growth. In kind it is cell-based. To be noted: for inhibition of SMC growth (anti-proliferative activity): relative to heparin. From the text:
Maltotetraose, maltopentaose and maltohexaose were sulfated as described in Examples 1-3, and assayed for their effects on smooth muscle cell proliferation using a standard assay for this activity. A convenient assay, in detail, is as follows:
Solutions to be tested are made up in DMEM medium containing 10% fetal calf serum and penicillin/streptomycin. Bovine smooth muscle cells (SMC) are isolated from bovine aorta by the method of Ross, R., J Cell Biol (1971) 172-186. SMC from passage 3-10 are plated at 350-700 cells per well in 96-well microtiter plates in the medium above and allowed to attach for 2-4 hr. The complete medium is then replaced with DMEM supplemented with 0.1% fetal calf serum, and the cells are incubated for an additional period of about 24 to 72 hr to arrest cell growth. The low-serum medium is then replaced with complete medium containing the test samples. The sulfated maltose oligosaccharides of the invention were added to the medium to make final concentrations as shown in the figures. The effects of heparin at the same concentrations were also determined.
The cells are allowed to grow for up to 7 days with replicate plates sampled at regular intervals. Cell number is determined by removing the medium and washing the cells with phosphate-buffered saline, adding 75-150 ul lysis buffer, and assaying for lactate dehydrogenase (LDH) activity, as described by Brandley, B., et at., J Biol Chem (1987) 262:6431. The activity of LDH is proportional to cell number.

In another assay the test system is heparanase. Put plainly: Heparanase inhibition, rat hepatoma cell heparanase. In kind it is biochemical.
In assay [4] the test system is chicken chorioallantoic membrane (CAM). In words: Chicken chorioallantoic membrane (CAM) assay, angiostatic activity. It counts as in vivo. From the text: Compositions that stimulate or inhibit angiogenesis can be identified using several assays known in the art. The chick chorioallantoic membrane (CAM) assay is commonly used. Using the CAM assay, certain heparinoids inhibit angiogenesis when administered with certain steroids. Folkman and Ingber, Ann, Surg. (1987) 206:374, Folkman et at., Science (1983) 221:719.
Compositions that stimulate or inhibit angiogenesis can be identified using several assays known in the art. Highly sulfated maltotetraose, Composition 5, Table 2, was tested for angiogenesis activity using the chicken chorioallantoic membrane (CAM) assay. The assay was performed as described by Castellot et. at., J. of Cellular Physiology (1986) 127: 323-329, with the exception that samples were evaluated for their efficacy to inhibit neovascularization. Carboxy methyl cellulose pellets containing 50 ug of hydrocortisone, or hydrocortisone plus different amounts of highly sulfated maltotetraose were incubated on the CAM for 3-4 days before scoring the results. Highly sulfated maltotetraose was produced as described in Example 2. Angiostatic activity is defined as a partial clearing or an avascular zone around the pellet. […]

In another assay the test system is PC-3. In words: PC-3 prostatic adenocarcinoma tumor growth in nude mice. In kind it is in vivo, human tumor in nude mouse. As to conditions: 80 mg/kg/day subcutaneous, 23 days, all time points tested; result in words. As for the experimental part: (§1) Experiments were conducted to test the efficacy of highly sulfated maltotetraose, Composition 5, Table 2, on tumor growth in an animal model system, the nude mouse. The growth of human tumors in the nude mouse has clinical relevance to the growth of tumors in humans.
(§2) Three human tumor cell lines were utilized, the mammary adenocarcinoma, MDA231, the pancreatic tumor cell line, CAPAN-2, and the prostatic adenocarcinoma cell line, PC-3. All cell lines are available from the American Type Culture Collection, and grow aggressively in nude mice. The experiments were conducted as follows: female, 15-20 gram nude mice, in groups of ten, were inoculated subcutaneously with 3-5×10^6 viable MDA231, CAPAN-2, or PC-3 cells in 0.1 ml PBS. The cells were grown in standard DMEM tissue culture media supplemented with 10% fetal calf serum in a humidified 5% CO2 incubator at 37° C. The cells were harvested with trypsin-EDTA, washed 2× with PBS, resuspended at a concentration of 3-5×10^7 cells/ml, and placed on ice prior to injection.
[…] The composition was filter sterilized with a 0.2 um Gelman filter unit.
(§3) Tumor volume was determined using the following formula: [formula]
Finally, the effects of highly sulfated maltotetraose on the human prostatic adenocarcinoma line, PC-3, was determined. This cell line is also available from the American Type Culture Collection. […]

A further assay deals with CAPAN-2. Put plainly: CAPAN-2 pancreatic tumor growth in nude mice. In kind it is in vivo, human tumor in nude mouse. To be noted: dosed once daily from day 0; result in words. As for the experimental part:
as §1
as §2, with “injection. […]” for “injection.”
as §3
The effects of highly satfated maltotetraose on CAPAN-2 tumor cell growth were determined using the materials and methods set forth above with the following exceptions. […]

In a further assay the test system is MDA231. In words: MDA231 mammary adenocarcinoma tumor growth in nude mice. It counts as in vivo, human tumor in nude mouse. To be noted: for MDA231 tumor growth inhibition: result in words. As for the experimental part: as §1, §2
On a dally basis, the mice were subcutaneously injected with 100 mg/kg of highly sulfated maltotetraose made up in PBS, and produced as described in Example 2. The composition was filter sterilized with a 0.2 um Gelman filter unit.
as §3
Control mice were injected with PBS vehicle only. Experimental and control mice were injected twice daily with 0.05 ml of the appropriate solution starting on days 0-40 post tumor challenge. From days 41-70 the animals were dosed once daily with 100 mg/kg/day in a volume of 0.1 ml per injection, and tumor volume measured at defined times using standard methods.

Assay [5] has as its system basic fibroblast growth factor. As to conditions: literature; result in words; cited from earlier work.
Setting [6] is: listed as highly sulfated maltotriose.
Setting [7] is: hydrocortisone 50 ug/pellet alone, 24 hr.
The mark [8] stands for this setting: listed as highly sulfated maltose.

Procedure for heparanase: Highly sulfated maltotetraose, Composition 5, Table 2, maltoheptaose and maltose were tested for heparanase inhibitory activity using heparanase from a rat hepatoma cell line. […] Further, their inhibitory activities were compared to porcine mucosal heparin. […] The following procedures and materials were used. Confluent rat hepatoma cell cultures were grown in standard cell culture flasks, and washed 3 times with 10 ml of a 50 mM Hepes solution containing 0.25M sucrose and 0.14M NaCl, pH 7.4. Next, 1 ml of a 50 mM MES buffer, pH 5.2, containing 0.14M NaCl, 6 mM sodium azide, and certain protease inhibitors was added and the cells removed from the flask using a disposable cell scraper. The following protease inhibitors were present in the MES buffer: 0.2 ug/ml aprotinin, 0.5 ug/ml leupeptin, 100 ug/ml soybean trypsin inhibitor, 1 mM PMSF, 2 mM EDTA (sodium salt), and 15 mM D-saccharic acid 1,4 lactone (exoglucuronidase inhibitor).
The cells were added to a 7 ml Dounce homogenizer, freezed/thawed 3 times in an ethanol/dry ice bath, and homogenized with 15 strokes using a tight pestle. The resulting cell lysates were placed in a 2 ml centrifuge tube and centrifuged at 4° C. for 30 minutes at 16,000×g. The supernatant was removed, and the protein concentration in the supernatant determined using the Macro BCA protein assay. BSA was used as a standard. Heparanase activity was quantified by measuring soluble N-^3 H-acetylated pancreas heparan sulfate fragments derived from uncleaved N-^3 H-acetylated pancreas heparan sulfate distinguishable by cetylpyridinium chloride (CPC) precipitation. […] The following procedures were used.
Next, 10 ul of distilled water containing various concentrations of porcine mucosal heparin, or the appropriate highly sulfated maltooligosaccharide, was added. Then, 30 ul of rat hepatoma cell supernatant, isolated as described above, containing 7.5-10 ug of protein in 50mM MES buffer, pH 5.2, containing 0.14M NaCl, 6mM sodium azide and the protease inhibitors described above, is added to siliconized 1.5 ml microcentrifuge tubes. Three to six replicates were run for each concentration of highly sulfated maltotetraose while three replicates were run for each concentration of porcine mucosal heparin. Controls were run to account for background counts.
The enzyme substrate inhibitor mixture was mixed, after which the tubes were incubated at 37° C. for 20 minutes. After 20 minutes, the reaction was stopped by adding to the reaction tubes 150 ul of an aqueous heparin solution (0.33 mg/ml). 200 ul of 100 mM sodium acetate pH 5.5 and 100 ul of CPC (0.6% in water) were then added. Three replicates maintained on ice were run as background controls (0 min.) in which the enzyme was added to the tubes immediately followed by heparin to terminate the reaction. […]

Consider chondroitin sulfate, for which the “inhibition of pericyte and/or smooth muscle cell proliferation” value in assay [1] is on record as “do not have this effect”.

Turning to heparan sulfate, the “vascular proliferation associated with injury” value in the assay on vascular proliferation is on record as “slow or arrest the vascular proliferation”.

On to “highly sulfated maltotriose [Composition 8]”, for which the “inhibition of binding of RO-12 UC cells to bFGF coated wells” value (“inhibition of binding of RO-12 UC cells” below) in the assay on bFGF (setting [6]) is given as “less active”; in the assay on bFGF (listed as sulfated maltotriose) it was “little or no activity”. Further, the “inhibition of adrenocortical endothelial cell proliferation” value is “less active” in [2] (setting [6]) and “little or no activity” in assay [2] (listed as sulfated maltotriose).

Regarding “highly sulfated maltopentaose [Composition 6]”, the “inhibition of SMC growth, per cent of heparin inhibition” value in assay [3] (about 50 ug/ml) is 100%. Besides, the “inhibition of SMC growth (anti-proliferative activity)” value in [3] (result in words) was “more effective in inhibiting SMC proliferation than the smaller-sized sulfated maltotetraose”. In the assay on bFGF, the “inhibition of binding of RO-12 UC cells” value was “significant activity”. Also, the “inhibition of adrenocortical endothelial cell proliferation” value in assay [2] was “significant activity”.

Regarding “highly sulfated maltoheptaose [Composition 7]”, the heparanase inhibition result in the assay on heparanase (result in words) is “as active as heparin”. In addition, the “inhibition of binding of RO-12 UC cells” value with bFGF is “significant activity”. In addition, the “inhibition of adrenocortical endothelial cell proliferation” value in [2] was “significant activity”.

Take `C[C@]12CCC(=O)C=C1CC[C@@H]1[C@@H]2[C@@H](O)C[C@@]2(C)[C@H]1CC[C@]2(O)C(=O)CO` [Hydrocortisone, hydrocortisone]: in [4] (setting [7]), the “number of embryos scored, NO EFFECT” value is on record as 27 embryos; the “number of embryos scored, avascular zone (++)” value is given as 0 embryos; the “number of embryos scored, partial clearing (+)” value came out at 2 embryos.

highly sulfated maltose [Composition 9]: the heparanase inhibition result with heparanase (at greater than 200 ug/ml, result in words) was “no activity”. In addition, the “inhibition of binding of RO-12 UC cells” value was “little or no activity relative to the highly sulfated maltotetraose composition” with bFGF and “less active” with bFGF (setting [8]). In addition, the figures for the “inhibition of adrenocortical endothelial cell proliferation” value in assay [2] and in assay [2] (setting [8]) were “little or no activity relative to the highly sulfated maltotetraose composition” and “less active”, respectively.

On to “highly sulfated maltotetraose [Composition 5]”, for which the “heparanase IC50” value with heparanase (rat hepatoma heparanase, pH 5.2, 37° C., 20 minutes) came to 9.0 µg/mL. In addition, the “heparanase inhibition relative to porcine mucosal heparin” value with heparanase (result in words, FIG. 11) was “approximately one half as effective as porcine mucosal heparin”. Moreover, the PC-3 growth inhibition entry in the assay on PC-3 was “inhibited PC-3 cell growth at all the time points tested”. Moreover, the “inhibition of SMC growth” value in [3] (150 ug/ml, result in words) is on record as “one hundred per cent inhibition was not observed”. Further, in [3] (about 60 ug/ml), the “inhibition of SMC growth, per cent of heparin inhibition” value was “about 50%”. Further, the “inhibition of SMC growth (anti-proliferative activity)” value in [3] (result in words) is reported as “significant anti-proliferative effects, although not as great as heparin”. The angiostatic activity entry in assay [4] (HSM alone, without hydrocortisone, result in words) is “inactive”. For the same molecule, the “CAPAN-2 tumor growth inhibition” value in the assay on CAPAN-2 is recorded as “significantly inhibits tumor growth”. The “inhibition of binding of RO-12 UC cells” value in the assay on bFGF was “significant activity”. Further, the results for the “MDA231 tumor growth inhibition” value with MDA231 (100 mg/kg subcutaneous) and with MDA231 (by days 68-69) were “tumor growth is significantly inhibited” and “dramatic”, respectively. For the same molecule, the “time at which inhibition is first apparent” value in the assay with MDA231 (MDA231, about) is 36 to 37 days. This molecule showed a tumor volume with MDA231 (MDA231, days 68-69, control about 375 mm^3) of about 125 mm^3. For the same molecule, in assay [2], the “inhibition of adrenocortical endothelial cell proliferation” value is given as “significant activity”.

Turning to heparin, the “vascular proliferation associated with injury” value in the assay on vascular proliferation was “slow or arrest the vascular proliferation”. For the same molecule, in assay [3] (heparin reference), the “concentration that gave 100% inhibition of SMC proliferation” value is 150 µg/mL. Also, in assay [1], the “inhibition of pericyte and/or smooth muscle cell proliferation” value is “inhibitor of both pericyte and smooth muscle cell proliferation”. In assay [5], the “binding to basic fibroblast growth factor” value is listed as “binds heparin quite strongly in vitro”. Further, in the assay with bFGF, the “inhibition of binding of RO-12 UC cells” value is “inhibits RO-12 UC cell binding”.

On to dermatan sulfate, for which the “inhibition of pericyte and/or smooth muscle cell proliferation” value in assay [1] is “do not have this effect”.
